Test results taken from ChEMBL document CHEMBL4507257, “Data for DCP probe ABT-100” (2021).
Activity calls are given as the source filed them. The rule behind the calls is not given here.

What was measured:
[1] = target: D(2) dopamine receptor (Homo sapiens) (UniProt P14416); experiment: D2 (h) Ligand binding assay; conditions: Compound concentration 10.0 uM
[2] = target: G protein-coupled receptor kinase 3 (Homo sapiens, UniProt P35626); experiment: Inhibition of GRK3 at compound concentration of 10.0 uM using the ScanMax (DiscoverX)
G protein-coupled receptor kinase 3, sequence (P35626 whole entry): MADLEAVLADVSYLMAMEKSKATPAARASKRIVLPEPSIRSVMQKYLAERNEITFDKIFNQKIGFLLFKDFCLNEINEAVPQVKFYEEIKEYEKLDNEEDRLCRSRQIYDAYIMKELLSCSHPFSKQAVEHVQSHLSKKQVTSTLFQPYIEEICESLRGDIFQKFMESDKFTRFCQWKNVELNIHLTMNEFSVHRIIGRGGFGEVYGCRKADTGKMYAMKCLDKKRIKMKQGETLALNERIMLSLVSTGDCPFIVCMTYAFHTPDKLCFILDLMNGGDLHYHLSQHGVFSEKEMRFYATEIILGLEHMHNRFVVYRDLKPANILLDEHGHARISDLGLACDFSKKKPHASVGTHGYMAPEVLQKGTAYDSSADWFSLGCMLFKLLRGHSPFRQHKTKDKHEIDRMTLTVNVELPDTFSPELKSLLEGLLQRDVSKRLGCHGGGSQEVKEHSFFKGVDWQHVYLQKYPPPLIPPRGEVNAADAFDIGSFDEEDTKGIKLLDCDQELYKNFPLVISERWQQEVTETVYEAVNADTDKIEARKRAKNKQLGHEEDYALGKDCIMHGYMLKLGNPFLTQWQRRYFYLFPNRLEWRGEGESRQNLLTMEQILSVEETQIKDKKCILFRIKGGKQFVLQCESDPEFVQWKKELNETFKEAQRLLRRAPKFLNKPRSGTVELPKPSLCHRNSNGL

[3] = target: T1, Muscarinic acetylcholine receptor M1 (Homo sapiens) (UniProt P11229); experiment: M1 (h) Ligand binding assay; conditions: Compound concentration 10.0 uM
T1 sequence (whole entry): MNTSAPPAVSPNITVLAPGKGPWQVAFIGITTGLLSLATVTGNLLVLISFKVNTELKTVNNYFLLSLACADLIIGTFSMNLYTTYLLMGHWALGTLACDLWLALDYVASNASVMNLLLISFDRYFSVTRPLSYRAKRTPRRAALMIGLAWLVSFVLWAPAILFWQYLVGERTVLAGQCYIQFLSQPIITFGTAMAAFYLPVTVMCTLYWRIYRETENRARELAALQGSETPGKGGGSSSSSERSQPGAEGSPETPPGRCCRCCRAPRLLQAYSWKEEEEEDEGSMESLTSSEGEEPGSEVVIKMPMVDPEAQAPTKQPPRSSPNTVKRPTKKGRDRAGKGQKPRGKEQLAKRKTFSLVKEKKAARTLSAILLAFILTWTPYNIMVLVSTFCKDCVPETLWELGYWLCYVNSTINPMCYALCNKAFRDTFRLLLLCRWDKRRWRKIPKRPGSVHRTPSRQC

[4] = target: GABA-A receptor; anion channel (Rattus norvegicus) (UniProt O09028+P15431+P18506+P18508+P19969+P20236+P23574+P23576+P28471+P28473+P30191+P62813+P63079+P63138+Q91ZM7+Q9ES14); conditions: Compound concentration 10.0 uM
[5] = target: T2, Muscarinic acetylcholine receptor M4 (Homo sapiens) (UniProt P08173); experiment: M4 (h) Ligand binding assay; conditions: Compound concentration 10.0 uM
T2 sequence (whole entry): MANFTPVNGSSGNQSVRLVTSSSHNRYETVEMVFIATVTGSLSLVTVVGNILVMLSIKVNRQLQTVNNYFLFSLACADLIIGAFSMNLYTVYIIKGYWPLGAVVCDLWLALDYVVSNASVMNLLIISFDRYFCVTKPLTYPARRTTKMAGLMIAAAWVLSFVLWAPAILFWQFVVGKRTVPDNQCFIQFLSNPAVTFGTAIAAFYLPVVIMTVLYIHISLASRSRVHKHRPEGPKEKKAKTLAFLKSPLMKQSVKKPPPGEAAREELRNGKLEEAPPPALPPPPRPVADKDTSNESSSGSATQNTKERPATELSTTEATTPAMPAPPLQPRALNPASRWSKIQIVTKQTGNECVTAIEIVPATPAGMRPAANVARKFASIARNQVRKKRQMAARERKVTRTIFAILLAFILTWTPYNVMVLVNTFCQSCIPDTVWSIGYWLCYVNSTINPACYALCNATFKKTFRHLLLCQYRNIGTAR

[6] = target: Muscarinic acetylcholine receptor M3 (Homo sapiens) (UniProt P20309); experiment: M3 (h) Ligand binding assay; conditions: Compound concentration 10.0 uM
[7] = target: Beta-1 adrenergic receptor (Homo sapiens) (UniProt P08588); conditions: Compound concentration 10.0 uM
Beta-1 adrenergic receptor (Homo sapiens), sequence (P08588 whole entry, looked up): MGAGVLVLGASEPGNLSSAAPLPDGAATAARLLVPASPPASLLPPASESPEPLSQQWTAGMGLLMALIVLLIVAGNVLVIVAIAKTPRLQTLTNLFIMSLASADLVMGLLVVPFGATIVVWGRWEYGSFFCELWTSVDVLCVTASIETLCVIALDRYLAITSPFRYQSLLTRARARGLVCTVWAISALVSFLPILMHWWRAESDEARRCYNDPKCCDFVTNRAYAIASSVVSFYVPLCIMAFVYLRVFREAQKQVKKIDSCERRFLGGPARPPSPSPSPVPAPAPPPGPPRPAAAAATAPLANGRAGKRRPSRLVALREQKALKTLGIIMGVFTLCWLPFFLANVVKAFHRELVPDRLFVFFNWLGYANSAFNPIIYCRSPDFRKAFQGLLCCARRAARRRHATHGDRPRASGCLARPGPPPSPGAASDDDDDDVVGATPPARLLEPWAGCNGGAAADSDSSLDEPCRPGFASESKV

[8] = target: Cannabinoid receptor 1 (Homo sapiens) (UniProt P21554); experiment: CB1 (h) (central) Ligand binding assay
Cannabinoid receptor 1 (Homo sapiens), sequence (P21554 whole entry): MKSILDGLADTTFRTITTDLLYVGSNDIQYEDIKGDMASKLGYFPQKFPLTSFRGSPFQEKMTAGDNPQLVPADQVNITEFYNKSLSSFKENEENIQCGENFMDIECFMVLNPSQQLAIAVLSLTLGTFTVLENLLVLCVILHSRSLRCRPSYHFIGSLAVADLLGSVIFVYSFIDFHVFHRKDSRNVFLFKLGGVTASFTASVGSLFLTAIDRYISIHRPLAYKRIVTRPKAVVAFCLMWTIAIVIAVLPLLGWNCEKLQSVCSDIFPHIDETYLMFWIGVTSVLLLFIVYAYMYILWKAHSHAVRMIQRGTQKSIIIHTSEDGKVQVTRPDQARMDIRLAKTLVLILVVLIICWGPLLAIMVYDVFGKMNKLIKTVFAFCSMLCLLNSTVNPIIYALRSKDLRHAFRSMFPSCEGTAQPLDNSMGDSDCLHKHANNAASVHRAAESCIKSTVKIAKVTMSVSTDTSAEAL

[9] = target: Endothelin-1 receptor (Homo sapiens) (UniProt P25101); experiment: ETA (h) Ligand binding assay; conditions: Compound concentration 10.0 uM
Endothelin-1 receptor (Homo sapiens), sequence (P25101 whole entry): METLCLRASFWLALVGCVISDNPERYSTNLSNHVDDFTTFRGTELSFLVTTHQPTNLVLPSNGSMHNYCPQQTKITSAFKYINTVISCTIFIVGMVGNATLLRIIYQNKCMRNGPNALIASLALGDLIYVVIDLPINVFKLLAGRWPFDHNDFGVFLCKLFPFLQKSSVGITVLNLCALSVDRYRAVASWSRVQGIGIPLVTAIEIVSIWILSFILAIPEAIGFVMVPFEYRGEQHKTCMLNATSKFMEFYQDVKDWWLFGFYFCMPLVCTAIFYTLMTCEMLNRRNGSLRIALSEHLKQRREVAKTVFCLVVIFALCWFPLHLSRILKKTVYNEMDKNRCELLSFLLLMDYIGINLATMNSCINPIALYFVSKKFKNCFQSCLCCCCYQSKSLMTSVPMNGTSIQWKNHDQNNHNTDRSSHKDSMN

[10] = target: 5-hydroxytryptamine receptor 7 (Homo sapiens) (UniProt P34969); experiment: 5-HT7 (h) Ligand binding assay; conditions: Compound concentration 10.0 uM
[11] = GABA (non selective) Ligand binding assay; conditions: Compound concentration 10.0 uM
[12] = target: Substance-P receptor (Homo sapiens) (UniProt P25103); experiment: NK1 (h) Ligand binding assay
Substance-P receptor (Homo sapiens), sequence (P25103 whole entry): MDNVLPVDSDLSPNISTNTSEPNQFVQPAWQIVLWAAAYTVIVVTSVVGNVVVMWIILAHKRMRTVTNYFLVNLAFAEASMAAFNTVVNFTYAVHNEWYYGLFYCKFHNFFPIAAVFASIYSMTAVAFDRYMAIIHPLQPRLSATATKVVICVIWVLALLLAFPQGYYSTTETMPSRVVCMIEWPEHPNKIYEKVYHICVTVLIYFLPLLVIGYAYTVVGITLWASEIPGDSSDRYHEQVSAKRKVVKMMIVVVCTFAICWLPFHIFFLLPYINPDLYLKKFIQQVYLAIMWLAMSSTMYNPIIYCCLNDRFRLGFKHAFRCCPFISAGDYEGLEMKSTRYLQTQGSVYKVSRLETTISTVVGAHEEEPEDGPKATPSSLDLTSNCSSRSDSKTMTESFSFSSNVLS

[13] = Immunoblot method to monitor prenylation inhibition of Ras; design: species or system Homo sapiens
[14] = target: Bombesin receptor (Homo sapiens) (UniProt P28336+P32247+P30550); experiment: Bombesin Ligand binding assay; assay type: protein assay; conditions: Compound concentration 10.0 uM
[15] = target: 5-hydroxytryptamine receptor 1B (Homo sapiens) (UniProt P28222); experiment: 5-HT1B Ligand binding assay; conditions: Compound concentration 10.0 uM
5-hydroxytryptamine receptor 1B (Homo sapiens), sequence (P28222 whole entry): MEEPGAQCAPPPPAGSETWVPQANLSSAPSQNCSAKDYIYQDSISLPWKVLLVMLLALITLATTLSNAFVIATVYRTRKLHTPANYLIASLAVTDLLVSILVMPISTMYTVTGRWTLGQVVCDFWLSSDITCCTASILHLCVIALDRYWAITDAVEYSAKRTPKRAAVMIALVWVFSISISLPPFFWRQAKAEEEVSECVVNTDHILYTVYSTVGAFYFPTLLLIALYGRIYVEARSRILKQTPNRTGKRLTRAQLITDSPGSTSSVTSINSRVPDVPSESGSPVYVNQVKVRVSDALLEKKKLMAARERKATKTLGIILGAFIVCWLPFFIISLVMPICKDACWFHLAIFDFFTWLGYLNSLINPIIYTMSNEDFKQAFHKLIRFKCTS

[16] = target: Nociceptin receptor (Homo sapiens) (UniProt P41146); experiment: ORL-1 (h) Ligand binding assay; conditions: Compound concentration 10.0 uM
Nociceptin receptor (Homo sapiens), sequence (P41146 whole entry): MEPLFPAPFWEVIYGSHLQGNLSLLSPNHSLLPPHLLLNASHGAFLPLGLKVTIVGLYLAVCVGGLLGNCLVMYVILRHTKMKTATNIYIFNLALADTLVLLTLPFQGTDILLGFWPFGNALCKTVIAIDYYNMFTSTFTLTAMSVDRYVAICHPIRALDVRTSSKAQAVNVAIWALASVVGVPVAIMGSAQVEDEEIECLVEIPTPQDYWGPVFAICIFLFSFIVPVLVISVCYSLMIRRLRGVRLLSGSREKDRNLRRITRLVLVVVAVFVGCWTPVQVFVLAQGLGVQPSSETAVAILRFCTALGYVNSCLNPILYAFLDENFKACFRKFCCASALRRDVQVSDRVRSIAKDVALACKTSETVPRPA

Histamine H1 receptor [17] = target: T3, Histamine H1 receptor (Homo sapiens, UniProt P35367); experiment: GPCRScan assay: inhibition of H1; design: radioligand conc. used [nm] 0.6 – 2.0, parental cells stable HEK
T3 sequence (P35367 whole entry): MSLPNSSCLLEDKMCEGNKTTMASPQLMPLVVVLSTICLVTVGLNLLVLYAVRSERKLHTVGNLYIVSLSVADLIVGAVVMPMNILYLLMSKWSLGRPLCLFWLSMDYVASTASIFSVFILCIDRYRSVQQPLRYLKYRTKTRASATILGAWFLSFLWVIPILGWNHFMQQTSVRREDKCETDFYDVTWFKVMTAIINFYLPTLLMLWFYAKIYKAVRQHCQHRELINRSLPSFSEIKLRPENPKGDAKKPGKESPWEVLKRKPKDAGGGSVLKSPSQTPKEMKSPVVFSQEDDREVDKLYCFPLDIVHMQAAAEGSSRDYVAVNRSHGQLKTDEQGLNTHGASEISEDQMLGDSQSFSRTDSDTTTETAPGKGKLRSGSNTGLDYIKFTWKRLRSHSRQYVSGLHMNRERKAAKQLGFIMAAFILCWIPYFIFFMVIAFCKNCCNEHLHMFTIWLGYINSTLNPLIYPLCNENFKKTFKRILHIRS

[18] = target: D(3) dopamine receptor (Homo sapiens) (UniProt P35462); experiment: D3 (h) Ligand binding assay; conditions: Compound concentration 10.0 uM
[19] = target: Prostacyclin receptor (Homo sapiens) (UniProt P43119); experiment: PGI2 (h) Ligand binding assay; conditions: Compound concentration 10.0 uM
[20] = target: Neuropeptide Y receptor type 1 (Homo sapiens) (UniProt P25929); experiment: Y1 (h) Ligand binding assay; conditions: Compound concentration 10.0 uM
Neuropeptide Y receptor type 1 (Homo sapiens), sequence (P25929 whole entry): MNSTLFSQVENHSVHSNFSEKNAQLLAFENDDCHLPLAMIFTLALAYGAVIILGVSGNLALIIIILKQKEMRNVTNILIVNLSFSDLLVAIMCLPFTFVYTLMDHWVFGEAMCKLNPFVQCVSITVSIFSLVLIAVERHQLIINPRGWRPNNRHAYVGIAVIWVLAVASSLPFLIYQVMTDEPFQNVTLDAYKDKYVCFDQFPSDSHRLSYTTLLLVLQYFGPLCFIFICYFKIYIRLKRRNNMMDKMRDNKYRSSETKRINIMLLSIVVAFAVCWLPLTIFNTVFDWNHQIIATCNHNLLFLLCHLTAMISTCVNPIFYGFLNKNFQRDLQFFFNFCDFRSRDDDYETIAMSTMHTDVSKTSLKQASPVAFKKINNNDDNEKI

[21] = target: Cyclin-dependent kinase 7 (Homo sapiens, UniProt P50613); experiment: Inhibition of CDK7 at compound concentration of 10.0 uM using the ScanMax (DiscoverX)
Cyclin-dependent kinase 7, sequence (P50613 whole entry): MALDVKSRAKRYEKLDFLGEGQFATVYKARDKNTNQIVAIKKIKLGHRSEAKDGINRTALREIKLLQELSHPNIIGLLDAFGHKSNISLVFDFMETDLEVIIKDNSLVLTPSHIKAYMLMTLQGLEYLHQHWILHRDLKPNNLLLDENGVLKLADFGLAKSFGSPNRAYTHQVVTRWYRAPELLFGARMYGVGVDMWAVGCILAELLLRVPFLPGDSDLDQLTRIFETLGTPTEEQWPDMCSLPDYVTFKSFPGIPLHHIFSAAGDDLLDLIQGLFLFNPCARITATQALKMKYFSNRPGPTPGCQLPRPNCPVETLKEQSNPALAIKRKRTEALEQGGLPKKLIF

Histamine H1 receptor [22] = target: T3, Histamine H1 receptor; experiment: H1 (central) Ligand binding assay; conditions: Compound concentration 10.0 uM
[23] = target: Beta-1 adrenergic receptor (Homo sapiens) (UniProt P08588); experiment: beta1 (h) Ligand binding assay; conditions: Compound concentration 10.0 uM
[24] = Scintillation proximity assay (SPA); design: species or system Homo sapiens
[25] = target: Beta-2 adrenergic receptor (Homo sapiens) (UniProt P07550); experiment: beta2 (h) Ligand binding assay; conditions: Compound concentration 10.0 uM
Beta-2 adrenergic receptor (Homo sapiens), sequence (P07550 whole entry, looked up): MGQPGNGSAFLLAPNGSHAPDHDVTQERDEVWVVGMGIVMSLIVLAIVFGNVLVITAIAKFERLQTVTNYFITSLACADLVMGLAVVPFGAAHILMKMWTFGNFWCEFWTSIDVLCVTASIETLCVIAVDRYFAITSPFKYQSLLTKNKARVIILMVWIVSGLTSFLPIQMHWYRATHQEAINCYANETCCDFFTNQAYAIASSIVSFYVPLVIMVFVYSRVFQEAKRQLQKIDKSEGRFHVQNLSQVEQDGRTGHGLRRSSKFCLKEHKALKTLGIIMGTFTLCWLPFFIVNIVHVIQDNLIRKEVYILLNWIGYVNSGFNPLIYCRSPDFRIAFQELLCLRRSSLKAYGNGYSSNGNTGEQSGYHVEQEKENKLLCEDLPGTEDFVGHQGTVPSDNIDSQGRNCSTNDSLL

[26] = target: T4, 5-hydroxytryptamine receptor 1A (Homo sapiens) (UniProt P08908); experiment: 5-HT1A (h) Ligand binding assay; conditions: Compound concentration 10.0 uM
T4 sequence (whole entry): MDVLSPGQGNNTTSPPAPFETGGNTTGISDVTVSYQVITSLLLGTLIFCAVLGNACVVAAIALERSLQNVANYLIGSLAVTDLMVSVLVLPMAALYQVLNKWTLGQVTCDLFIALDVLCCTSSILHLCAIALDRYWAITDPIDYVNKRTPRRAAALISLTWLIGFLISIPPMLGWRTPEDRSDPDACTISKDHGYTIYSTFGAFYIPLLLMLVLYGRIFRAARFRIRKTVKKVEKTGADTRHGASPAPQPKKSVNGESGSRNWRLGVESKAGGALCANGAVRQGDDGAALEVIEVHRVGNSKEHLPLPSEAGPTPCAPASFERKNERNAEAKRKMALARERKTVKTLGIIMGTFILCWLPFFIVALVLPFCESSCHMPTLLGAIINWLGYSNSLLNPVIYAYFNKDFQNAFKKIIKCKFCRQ

[27] = target: Galanin receptor type 1 (Homo sapiens) (UniProt P47211); experiment: GALI (h) Ligand binding assay; conditions: Compound concentration 10.0 uM
[28] = target: Platelet-derived growth factor receptor (Homo sapiens) (UniProt P09619+P16234); experiment: PDGF Ligand binding assay; assay type: protein-complex assay; conditions: Compound concentration 10.0 uM

Cn1cncc1[C@](O)(COc1ccc(C#N)cc1-c1ccc(OC(F)(F)F)cc1)c1ccc(C#N)cc1 [ABT-100]
inhibition [1]: 12%
Kd [2]: > 10 µM (not active)
inhibition [3]: < 10%
inhibition [4]: 6.85%
inhibition [5]: < 10%
inhibition [6]: < 10%
inhibition [7]: 4.25%
inhibition ([8]; Compound concentration 1.0 uM): 23%
inhibition ([8]; Compound concentration 3.0 uM): 45%
inhibition ([8]; Compound concentration 10.0 uM): 68%
inhibition [9]: < 10%
inhibition [10]: 22%
inhibition [11]: < 10%
inhibition ([12]; Compound concentration 3.0 uM): 31%
inhibition ([12]; Compound concentration 10.0 uM): 68%
EC50 [13]: 0.00073 µM (active)
inhibition [14]: < 10%
inhibition [15]: < 10%
inhibition [16]: < 10%
Ki (Histamine H1 receptor [17]): 10 µM
inhibition [18]: 36%
inhibition [19]: < 10%
inhibition [20]: < 10%
Kd [21]: > 10 µM (not active)
inhibition (Histamine H1 receptor [22]): < 10%
inhibition [23]: 22%
IC50 [24]: 0.05 nM (active)
inhibition [25]: 10%
inhibition [26]: 18%
inhibition [27]: < 10%
inhibition [28]: < 10%
